Read-outs that look alike come from different tables or passages of the source.
Columns and labels:
[1] = biological target: T1, full-length human PDE4B2 isozyme (Homo sapiens, UniProt Q07343); assay: PDE4 IC50 determination by Scintillation Proximity Assay, PDE4B2; type: biochemical
T1 construct: The full-length human PDE4B2 isozyme; His6 (N); TEV cleavage site (N); made in house; host or cells: baculovirus infected insect cells (unpurified lysate)
Procedure, shortened: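 Unpurified His6-TEV-tagged full-length human PDE4B2 from baculovirus-infected insect cell lysate (2.5 μl of 50% glycerol stock/ml) hydrolysed [3H]cAMP in 50 mM Tris pH 7.5, 8.3 mM MgCl, 1.7 mM EGTA, 0.01% BSA for 30 min at 30°. Stopped with SPA beads in 18 mM ZnSO4; [3H]AMP scintillation counted, IC50 by non-linear regression.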

[2] = system: TNF alpha production in LPS-stimulated human blood (Buffy coat); assay: TNF alpha production by stimulation with LPS in whole blood cultures; type: cell-based
Protocol: Compounds were assayed to generate IC50 numbers as described in Example 54, using the following assay protocol (see Tables 3B and 4B for compounds and results).
Protocol • 1) Obtained 20 mM DMSO aliquots of desired concentrations of compounds (see Tables 3B and 4B for compounds tested and results). Placed 2 μl/well compound in DMSO in the top row of the dilution plate. Added 98 μl of RPMI 1640 media w/2.5% heat inactivated FBS.
2) Made the same media with 2% DMSO in it. Added 60 μl/well to well to make compound titration. Took 30 μl of top row and did a 1:3 dilution down the plate. In column 11 added 4 wells of 50 μM roflumilast and piclamilast. In column 12 added 2% DMSO media.
3) Transfered 20 μl/well into assay plates in duplicate.
4) Obtained human Buffy coat.
5) Diluted blood with 7 volumes of RPMI 1640 media with 1% P/S and 2.5% heat inactivated FBS (a 1:8 dilution)
6) Added160 μl/well of diluted blood to the assay plates.
7) Incubated for 1 hour at 37 degrees 5% CO2
8) Diluted LPS (which was already diluted to 1 mg/ml in PBS, 20 μl aliquots frozen −20 C.) to 10× desired final concentration to make a […] dilution (final concentration should be 100 ng/ml).
9) After 1 hour incubation added 20 μl/well of LPS to plates. A non-LPS treated background was also prepared. Samples were put on the shaker for a one minute 900 rpm.
10) Incubated for 4 hours in incubator.
11) After incubation, put on the shaker for a one minute 900 rpm and spun plate at 100 g for 10 minutes, Decel 5.
12) Carefully pipetted the top 75 μl supernatant into a new plate. Samples were frozen as needed.
Biosource hu-TNF ALPHA ELISA
• REAGENTS USED • DPBS 10×: VWR45000-428 (dilute 1:10 with Millipore Water) • TWEEN 20: FISHER BP337-500 • CAPTURE AND DETECTION ANTIBODIES: R&D DY510E • STREP-HRP: Biosource part SNN4004X • COLOR REAGENTS: R&D DY994 • STOP SOLUTION: from chemistry, or R&D DY999 • 1) Thawed samples to RT as needed. • 2) Added 50 μl Incubation buffer/well. • 3) Added 50 μl blood samples +50 μl Diluent buffer • 4) Incubated 2 hours at room temp. • 5) Washed the plate 4× with 300 μl/well wash buffer with microfill. Wash buffer was DPBS with 0.05% Tween pH 7.2-7.4 • 6) Added 100 μl biotinylated anti-TNFalpha • 7) Incubateed 1 hours at room temp. • 8) Washed the plate 4× with 300 μl/well wash buffer with microfill. Wash buffer was DPBS with 0.05% Tween pH 7.2-7.4 • 9) Added^100 μl Streptavidin-HRP working solution • 10) Incubated for 30 minutes at room temp. • 11) Washed the plate 4× with 300 μl/well wash buffer with microfill. Wash buffer was DPBS with 0.05% Tween pH 7.2-7.4 • 12) Added 100 μl Chromagen • 13) Incubated in the dark for 30 minutes until the blue color developed satisfactorily. • 14) Added 100 μl/well stop solution (2 N H2SO4). • 15) Read plate on WallacVictor at 450 nm for 0.1 sec/well

PDE4D = biological target: T2, PDE4D (Homo sapiens, UniProt Q08499); assay: PDE4 IC50 determination by Scintillation Proximity Assay, PDE4D; type: biochemical; conditions: Table 1B, Formula I compounds; read-out: IC50 PDE4D
T2 construct: PDE4D: The catalytic domain of human PDE4B from S3 16-V692; His6 (N); thrombin cleavage site (N); made in house; host or cells: E. coli
T2 sequence (Q08499 380-756): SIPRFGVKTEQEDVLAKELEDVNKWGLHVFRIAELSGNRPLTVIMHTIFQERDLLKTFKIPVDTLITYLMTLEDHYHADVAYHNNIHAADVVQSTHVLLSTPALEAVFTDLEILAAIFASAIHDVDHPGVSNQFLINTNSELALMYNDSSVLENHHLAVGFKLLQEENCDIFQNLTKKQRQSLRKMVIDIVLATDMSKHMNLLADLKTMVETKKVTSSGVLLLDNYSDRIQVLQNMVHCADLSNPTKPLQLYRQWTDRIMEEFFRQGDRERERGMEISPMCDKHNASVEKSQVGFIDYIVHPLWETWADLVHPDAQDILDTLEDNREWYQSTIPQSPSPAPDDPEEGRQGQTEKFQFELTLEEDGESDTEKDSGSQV
Procedure, shortened: (§1)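 Radiometric SPA: PDE4B (80 ng/ml) or PDE4D (4 ng/ml) hydrolysed [^3H]cAMP over 30 min at 30°, and the bead-bound [^3H]AMP was scintillation-counted.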

[3] = biological target: T3, PDE4B: The catalytic domain of human PDE4B from S152-S528 (Homo sapiens, UniProt Q07343); assay: PDE4 IC50 determination by Scintillation Proximity Assay, PDE4B; type: biochemical
T3 construct: His6 (N); thrombin cleavage site (N); made in house; host or cells: E. coli
T3 sequence (Q07343 with tags, fused parts or gaps): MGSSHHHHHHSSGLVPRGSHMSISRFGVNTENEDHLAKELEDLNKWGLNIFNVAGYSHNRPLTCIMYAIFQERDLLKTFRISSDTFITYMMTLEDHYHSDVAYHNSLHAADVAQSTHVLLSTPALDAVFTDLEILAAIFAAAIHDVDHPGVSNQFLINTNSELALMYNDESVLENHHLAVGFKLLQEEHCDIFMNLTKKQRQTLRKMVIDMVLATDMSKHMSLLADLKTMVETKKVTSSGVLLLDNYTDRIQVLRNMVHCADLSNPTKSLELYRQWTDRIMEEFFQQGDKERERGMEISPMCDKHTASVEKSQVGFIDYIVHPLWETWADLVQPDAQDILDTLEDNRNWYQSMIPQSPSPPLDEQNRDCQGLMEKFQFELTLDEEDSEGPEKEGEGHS
Procedure, shortened: as §1

[4] = biological target: T4, full-length human PDE4D5 isozyme (Homo sapiens, UniProt Q08499); assay: PDE4 IC50 determination by Scintillation Proximity Assay, PDE4D5; type: biochemical
T4 construct: The full-length human PDE4D5 isozyme; His6 (N); TEV cleavage site (N); made in house; host or cells: baculovirus infected insect cells (unpurified lysate)
T4 sequence (Q08499 1-745 isoform Q08499-6): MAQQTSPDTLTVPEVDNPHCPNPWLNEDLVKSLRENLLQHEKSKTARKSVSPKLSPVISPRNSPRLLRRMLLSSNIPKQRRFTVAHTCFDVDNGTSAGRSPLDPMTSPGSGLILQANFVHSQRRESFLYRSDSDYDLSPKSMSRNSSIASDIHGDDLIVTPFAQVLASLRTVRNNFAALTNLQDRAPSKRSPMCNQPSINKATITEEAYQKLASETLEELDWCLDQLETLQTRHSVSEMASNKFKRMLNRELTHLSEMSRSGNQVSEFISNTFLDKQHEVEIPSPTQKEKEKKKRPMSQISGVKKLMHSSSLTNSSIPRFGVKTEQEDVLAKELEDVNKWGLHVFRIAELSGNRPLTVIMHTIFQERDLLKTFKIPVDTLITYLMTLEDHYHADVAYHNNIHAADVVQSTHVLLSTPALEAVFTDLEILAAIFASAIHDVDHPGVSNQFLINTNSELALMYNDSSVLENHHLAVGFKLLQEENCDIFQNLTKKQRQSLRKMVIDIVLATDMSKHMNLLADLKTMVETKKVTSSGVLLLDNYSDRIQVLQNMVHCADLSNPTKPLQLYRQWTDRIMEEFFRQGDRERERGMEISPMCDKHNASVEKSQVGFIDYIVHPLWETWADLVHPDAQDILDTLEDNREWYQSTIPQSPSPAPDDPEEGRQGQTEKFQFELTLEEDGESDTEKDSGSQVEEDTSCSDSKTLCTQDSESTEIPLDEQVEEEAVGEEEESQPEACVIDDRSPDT
Procedure, shortened: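 Unpurified His6-tagged full-length human PDE4D5 from baculovirus-infected insect cell lysate, 0.083 μl glycerol stock/ml, hydrolysed [3H]cAMP in Tris pH 7.5/MgCl/EGTA buffer, 30 min at 30°. ZnSO4/SPA beads stop; [3H]AMP counted. Controls: DMSO and roflumilast; 11-point duplicate curves, nonlinear-regression IC50.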

[5] = Table 1B, Formula I compounds, read-out: IC50 PDE4B2
[6] = Homo sapiens, Table 1B, Formula I compounds, read-out: IC50 h TNFα
[7] = Table 1B, Formula I compounds, read-out: IC50 PDE4B
[8] = Table 1B, Formula I compounds, read-out: IC50 PDE4D5

T1 sequence (Q07343 1-564 isoform Q07343-2): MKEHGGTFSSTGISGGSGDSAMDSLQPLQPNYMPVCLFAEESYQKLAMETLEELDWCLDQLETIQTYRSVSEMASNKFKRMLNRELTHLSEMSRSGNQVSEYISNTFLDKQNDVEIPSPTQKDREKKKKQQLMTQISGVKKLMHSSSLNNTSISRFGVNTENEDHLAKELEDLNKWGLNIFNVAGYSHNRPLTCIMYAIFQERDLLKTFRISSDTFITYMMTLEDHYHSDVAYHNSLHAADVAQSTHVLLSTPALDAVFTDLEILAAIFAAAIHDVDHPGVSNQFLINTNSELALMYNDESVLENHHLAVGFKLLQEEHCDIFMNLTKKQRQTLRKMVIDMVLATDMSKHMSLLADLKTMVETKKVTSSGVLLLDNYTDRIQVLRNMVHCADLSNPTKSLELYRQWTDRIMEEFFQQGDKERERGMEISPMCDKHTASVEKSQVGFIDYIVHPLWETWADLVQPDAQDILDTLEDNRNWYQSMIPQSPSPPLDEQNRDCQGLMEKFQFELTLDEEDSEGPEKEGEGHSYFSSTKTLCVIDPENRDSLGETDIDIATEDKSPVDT

Structure (SMILES) | IC50 [1, 5] [µM] | IC50 [2, 6] [µM] | IC50 (PDE4D) [µM] | IC50 [3, 7] [µM] | IC50 [4, 8] [µM] | IC50 ([1]; first part of Table 2B (2-1 to 2-22), read-out: IC 50 vs. indicated assay PDE4B2) [µM] | IC50 ([2]; human whole blood, LPS 100 ng/ml, read-out: IC 50 vs. indicated assay h TNFα) [µM] | IC50 ([3]; first part of Table 2B (2-1 to 2-22), read-out: IC 50 vs. indicated assay PDE4B) [µM] | IC50 ([4]; first part of Table 2B (2-1 to 2-22), read-out: IC 50 vs. indicated assay PDE4D5) [µM]
N#Cc1c(Nc2ccccc2)sc(C(=O)c2ccc(Cl)cc2)c1N [Compound 1-20, 4-Amino-5-(4-chloro-benzoyl)-2-phenylamino-thiophene-3-carbonitrile] | < 10 | < 10 | < 10 | < 10 | < 10 | – | – | – | –
COc1ccc(OC)c(C(=O)c2sc(NC3CCCC3)c(C#N)c2N)c1 [Compound 1-40] | < 10 | > 10 | < 10 | < 10 | < 10 | – | – | – | –
COc1ccc(Nc2sc(C(=O)c3ccccc3Cl)c(N)c2C#N)cc1 [Compound 1-110, 4-Amino-5-(2-chloro-benzoyl)-2-(4-methoxy-phenylamino)-thiophene-3-carbonitrile] | < 10 | < 10 | < 10 | < 10 | < 10 | – | – | – | –
CC(C)CNc1sc(C(=O)c2cc(-c3ccccc3)no2)c(N)c1C#N [Compound 1-209, 4-Amino-2-isobutylamino-5-(3-phenyl-isoxazole-5-carbonyl)-thiophene-3-carbonitrile] | < 10 | > 10 | < 10 | < 10 | < 10 | – | – | – | –
Cc1nc(-c2cnccn2)sc1C(=O)c1sc(NC2CCCC2)c(C#N)c1N [Compound 1-219, 4-Amino-2-cyclopentylamino-5-(4-methyl-2-pyrazin-2-yl-thiazole-5-carbonyl)-thiophene-3-carbonitrile] | < 10 | < 10 | < 10 | < 10 | < 10 | – | – | – | –
N#Cc1c(NC2CCCC2)sc(C(=O)c2cc(-c3ccc([N+](=O)[O-])cc3)no2)c1N [Compound 1-220, 4-Amino-2-cyclopentylamino-5-[3-(4-nitro-phenyl)-isoxazole-5-carbonyl]-thiophene-3-carbonitrile] | < 10 | > 10 | > 10 | < 10 | > 10 | – | – | – | –
CCC(C)Nc1sc(C(=O)c2cc(-c3ccccc3)no2)c(N)c1C#N (centres unmarked) [Compound 1-222, 4-Amino-2-sec-butylamino-5-(3-phenyl-isoxazole-5-carbonyl)-thiophene-3-carbonitrile] | < 10 | > 10 | < 10 | < 10 | > 10 | – | – | – | –
CC(C)C(C)Nc1sc(C(=O)c2cc(-c3ccccc3)no2)c(N)c1C#N (centres unmarked) [Compound 1-223, 4-Amino-2-(1,2-dimethyl-propylamino)-5-(3-phenyl-isoxazoie-5-carbonyl)-thiophene-3-carbonitrile] | < 10 | > 10 | > 10 | < 10 | > 10 | – | – | – | –
CC(C)Nc1sc(C(=O)c2cc(-c3ccc(Cl)c(Cl)c3)no2)c(N)c1C#N [Compound 1-225] | < 10 | > 10 | > 10 | < 10 | > 10 | – | – | – | –
Cc1c(NC2CCCC2)sc(C(=O)c2cc(-c3ccccc3)no2)c1N [Compound 1-240, (3-Amino-5-cyclopentylamino-4-methyl-thiophen-2-yl)-(3-phenyl-isoxazol-5-yl)-methanone] | < 10 | < 10 | – | < 10 | < 10 | – | – | – | –
CCc1c(NC2CCCC2)sc(C(=O)c2cc(-c3ccccc3)no2)c1N [Compound 1-241, (3-Amino-5-cyclopentylamino-4-ethyl-thiophen-2-yl)-(3-phenyl-isoxazole-5-yl)-methanone] | < 10 | > 10 | – | < 10 | > 10 | – | – | – | –
COc1ccccc1Nc1sc(C(=O)c2cc(-c3ccccc3)no2)c(N)c1C#N [Compound 1-242] | < 10 | < 10 | – | < 10 | < 10 | – | – | – | –
CCC(C)Nc1sc(C(=O)c2cc(-c3ccccc3)no2)c(N)c1C(N)=O (centres unmarked) [Compound 1-244, 4-Amino-2-sec-butylamino-5-(3-phenyl-isoxazole-5-carbonyl)-thiophene-3-carboxylic acid amide] | < 10 | < 10 | < 10 | < 10 | < 10 | – | – | – | –
CC(C)CNc1sc(C(=O)c2cc(-c3ccc(Cl)c(Cl)c3)no2)c(N)c1C(N)=O [Compound 1-245, 4-Amino-5-[3-(3,4-dichloro-phenyl)-isoxazole-5-carbonyl]-2-isobutylamino-thiophene-3-carboxylic acid amide] | < 10 | < 10 | < 10 | < 10 | < 10 | – | – | – | –
CCC(C)Nc1sc(C(=O)c2cc(-c3ccc(Cl)c(Cl)c3)no2)c(N)c1C#N (centres unmarked) [Compound 1-247, 4-Amino-2-sec-butylamino-5-[3-(3,4-dichloro-phenyl)-isoxazole-5-carbonyl]-thiophene-3-carbonitrile] | < 10 | > 10 | > 10 | < 10 | > 10 | – | – | – | –
CCC(C)Nc1sc(C(=O)c2cc(-c3ccc(Cl)c(Cl)c3)no2)c(N)c1C(N)=O (centres unmarked) [Compound 1-249, 4-Amino-2-sec butylamino-5-[3-(3,4-dichloro-phenyl)-isoxazole-5-carbonyl]-thiophene-3-carboxylic acid amide] | – | > 10 | < 10 | < 10 | > 10 | – | – | – | –
NC(=O)c1c(N)sc(C(=O)c2cc(-c3ccccc3)no2)c1N [Compound 1-255, 2,4-Diamino-5-(3-phenyl-isoxazole-5-carbonyl)-thiophene-3-carboxylic acid amide] | > 10 | > 10 | – | – | > 10 | – | – | – | –
Nc1nc(NC2CCCC2)sc1C(=O)c1cc(-c2ccccc2)cs1 [Compound 2-19, (4-Amino-2-cyclopentylamino-thiazol-5-yl)-(4-phenyl-thiophen-2yl)-methanone] | – | – | – | – | – | < 10 | < 10 | < 10 | < 10
